Experimental data from US20260207621A1 (Vividion Therapeutics, Inc., priority 2022, published 2026).
pIC50: −log10 of the molar value.

How the values were obtained:
[1] = molecular target: T1, KEAP1 C151 (Homo sapiens, UniProt Q14145); assay: Nrf2 TMT measurement: in vitro TE50 for KEAP1 C151 (IA-DTB competition, targeted TMT mass spectrometry) in MDA-MB-468 cell lysate; format: binding; conditions: in vitro target engagement of KEAP1 C151, targeted TMT, read-out: KEAP1_C151 TE50
T1 construct: treating 500 μg of cell lysate generated from MDA-MB-468 breast cancer cells with DMSO or compound; endogenous in cells; host or cells: MDA-MB-468 breast cancer cell lysate
T1 sequence (Q14145 whole entry): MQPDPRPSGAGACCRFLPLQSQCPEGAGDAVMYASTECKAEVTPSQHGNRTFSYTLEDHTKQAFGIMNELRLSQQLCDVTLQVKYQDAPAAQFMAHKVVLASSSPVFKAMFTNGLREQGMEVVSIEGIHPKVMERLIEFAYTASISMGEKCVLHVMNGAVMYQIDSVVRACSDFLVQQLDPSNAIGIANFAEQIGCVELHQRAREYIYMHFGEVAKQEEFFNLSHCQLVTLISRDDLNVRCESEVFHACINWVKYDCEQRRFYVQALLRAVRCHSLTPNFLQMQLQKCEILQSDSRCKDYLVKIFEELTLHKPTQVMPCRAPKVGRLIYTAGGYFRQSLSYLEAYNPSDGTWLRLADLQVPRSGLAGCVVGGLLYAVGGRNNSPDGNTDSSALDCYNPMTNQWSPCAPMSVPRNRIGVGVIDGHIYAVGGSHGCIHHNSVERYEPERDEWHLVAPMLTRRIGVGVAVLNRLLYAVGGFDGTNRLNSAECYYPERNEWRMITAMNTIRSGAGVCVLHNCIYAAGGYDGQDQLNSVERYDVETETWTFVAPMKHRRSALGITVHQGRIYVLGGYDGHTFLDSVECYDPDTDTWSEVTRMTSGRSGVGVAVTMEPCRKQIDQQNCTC
Method in brief: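 Occupancy of KEAP1 C151 measured as loss of IA-DTB labeling (200 μM, 1 h, room temperature) after 1 h compound pre-treatment of MDA-MB-468 cell lysate.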

[2] = tested on: Nrf2; assay: Nrf2 antagonism assay: ARE luciferase reporter in KYSE-70 cells; format: cell-based; conditions: Homo sapiens, KYSE-70, KYSE-70 cells, positive Imax corresponds to Nrf2 antagonism, read-out: KYSE70 Cellular ARE Luciferase Imax (%)
Method in brief: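 Dose-response curves give IC50 and Imax, with positive Imax read as Nrf2 antagonism, i.e. reduced luciferase signal. Reporter cells are Nrf2-high KYSE-70 (Nrf2 W24C mutant) bearing ARE-controlled luciferase. Antagonists are proposed to act at KEAP1 C151, speeding Nrf2 degradation.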

Structure (SMILES)	pIC50 [1]	Emax [2] [%]
C=CC(=O)N1[C@H](c2cc(Cl)cc(-c3ccnc(N)n3)c2)COC[C@H]1C(F)F (single isomer, unassigned) [Compound 290]	7.82	93
C=CC(=O)N1[C@H](c2cc(Cl)cc(-c3ncc(N)cn3)c2)COC[C@H]1C(F)F (single isomer, unassigned) [Compound 291]	> 8.19	93
C=C(Cl)C(=O)N1CCOC[C@H]1c1cc(Cl)cc(-c2ncnc(N)n2)c1 (single isomer, unassigned) [Compound 294]	5.86	91
C=C(C(=O)N1CCOC[C@H]1c1cc(Cl)cc(-c2ncnc(N)n2)c1)C(F)(F)F (single isomer, unassigned) [Compound 295]	6.70	88
C=CC(=O)N1CCOC[C@H]1c1cc(Cl)cc(-c2cc3[nH]ccc3cn2)c1 (single isomer, unassigned) [Compound 296]	7.44	96
C=CC(=O)N1CCOC[C@H]1c1cc(Cl)cc(-c2cc(C(N)=O)ccn2)c1 (single isomer, unassigned) [Compound 298]	7.49	94
C=CC(=O)N1CCOC[C@H]1c1cc(Cl)cc(-c2c[nH]c(N)n2)c1 [Compound 193, (R)-1-(3-(3-(2-amino-1H-imidazol-4-yl)-5-chlorophenyl)morpholino)prop-2-en-1-one]	7.01	91
C=CC(=O)N1CCOC[C@H]1c1cc(Cl)cc(-n2cnc(N)n2)c1 [Compound 215, (R)-1-(3-(3-(3-amino-1H-1,2,4-triazol-1-yl)-5-chlorophenyl)morpholino)prop-2-en-1-one]	6.46	65
C=CC(=O)N1CCOC[C@H]1c1cc(Cl)cc(-c2ncc(N)c(N)n2)c1 [Compound 253, (R)-1-(3-(3-chloro-5-(4,5-diaminopyrimidin-2-yl)phenyl)morpholino)prop-2-en-1-one]	7.30	93
C=CC(=O)N1CCOC[C@H]1c1cc(Cl)cc(-c2ncc(OC)c(N)n2)c1 [Compound 261, (R)-1-(3-(3-(4-amino-5-methoxypyrimidin-2-yl)-5-chlorophenyl)morpholino)prop-2-en-1-one]	7.72	95
C=CC(=O)N1CCOC[C@H]1c1cc(Cl)cc(-c2cnc(N)c(F)n2)c1 [Compound 289, (R)-1-(3-(3-(5-amino-6-fluoropyrazin-2-yl)-5-chlorophenyl)morpholino)prop-2-en-1-one]	> 8.19	95
